What was measured:
[1] = tested on: MOLM-14 D835Y (endogenous FLT3 ITD and transfected FLT3 D835Y); assay: MOLM-14 D835Y cell proliferation assay (CellTiter-Glo); format: cell-based; details: Homo sapiens, MOLM-14, 72 h; 3 d growth, GMean
In short: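 Three-day proliferation at 37 °C/5% CO2 of FLT3-ITD MOLM-14 lines with D835Y or F691L mutation, seeded 1×10^4 per well. Compounds at eight points, top 1 μM final, 0.2% DMSO. ATP luminescence (CellTiter-Glo) gives IC50.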

BA/F3-FLT3-ITD + D835Y = biological target: T1, BA/F3-FLT3-ITD + D835Y (Homo sapiens, UniProt P36888, D835Y, cells depend on it, form not given); assay: Engineered BA/F3 cell growth assay, FLT3 ITD/D835Y; format: cell-based, murine; details: 3 d growth
T1 sequence (P36888 with tags, fused parts or gaps INS600HVDFREYEYD/D835Y): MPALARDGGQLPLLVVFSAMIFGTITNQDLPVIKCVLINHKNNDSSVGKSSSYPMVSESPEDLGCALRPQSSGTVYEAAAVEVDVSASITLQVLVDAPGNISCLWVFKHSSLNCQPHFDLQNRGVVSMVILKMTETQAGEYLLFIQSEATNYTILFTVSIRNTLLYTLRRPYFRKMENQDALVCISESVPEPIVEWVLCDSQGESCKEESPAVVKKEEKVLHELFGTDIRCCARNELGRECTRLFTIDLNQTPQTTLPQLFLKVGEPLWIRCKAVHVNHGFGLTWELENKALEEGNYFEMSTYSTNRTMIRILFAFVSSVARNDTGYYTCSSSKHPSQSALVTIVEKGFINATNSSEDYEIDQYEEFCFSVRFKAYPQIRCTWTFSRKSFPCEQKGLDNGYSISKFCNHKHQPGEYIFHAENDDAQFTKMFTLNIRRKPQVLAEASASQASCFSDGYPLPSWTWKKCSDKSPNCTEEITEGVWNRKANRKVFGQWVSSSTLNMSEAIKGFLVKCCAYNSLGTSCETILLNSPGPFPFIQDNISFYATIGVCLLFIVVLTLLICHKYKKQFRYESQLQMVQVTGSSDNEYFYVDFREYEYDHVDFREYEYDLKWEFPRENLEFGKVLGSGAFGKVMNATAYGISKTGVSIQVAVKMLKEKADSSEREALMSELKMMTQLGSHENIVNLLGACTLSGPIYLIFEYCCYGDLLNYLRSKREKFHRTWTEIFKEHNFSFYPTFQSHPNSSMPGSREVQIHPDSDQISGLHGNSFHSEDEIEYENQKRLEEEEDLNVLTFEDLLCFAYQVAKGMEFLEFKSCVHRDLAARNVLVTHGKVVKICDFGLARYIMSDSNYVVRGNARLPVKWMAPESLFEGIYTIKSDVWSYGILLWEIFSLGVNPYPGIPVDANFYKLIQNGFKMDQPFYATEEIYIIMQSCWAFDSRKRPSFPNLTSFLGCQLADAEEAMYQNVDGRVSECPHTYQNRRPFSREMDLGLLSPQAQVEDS
In short: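 IC50 derived from CellTiter-Glo ATP luminescence after 3 days at 37 °C, 5% CO2, over eight 1:3 dilutions from 1 μM (0.2% DMSO final). Cells: IL-3-independent murine Ba/F3 expressing full-length FLT3 ITD/D835Y, 1×10^4 per well.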

Structure (SMILES) | IC50 [1] [µM] | GI50 (BA/F3-FLT3-ITD + D835Y) [µM]
O=C(Cc1ccc(-c2cnc3[nH]nc(C4CC4)c3c2)cc1F)Nc1cncc(C(F)(F)F)c1 [Compound P-0072, 2-[4-(3-cyclopropyl-1H-pyrazolo[3,4-b]pyridin-5-yl)-2-fluoro-phenyl]-N-[5-(trifluoromethyl)-3-pyridyl]acetamide] | 0.0001 to 10 | 0.0001 to 10
COc1ncc(NC(=O)Cc2ccc(-c3cnc4[nH]cc(C(C)=O)c4c3)cc2F)cc1C(F)(F)F [Compound P-0035, 2-[4-(3-acetyl-1H-pyrrolo[2,3-b]pyridin-5-yl)-2-fluoro-phenyl]-N-[6-methoxy-5-(trifluoromethyl)-3-pyridyl]acetamide] | 0.0001 to 10 | 0.0001 to 10
COc1ncc(NC(=O)Cc2ccc(-c3cnc4[nH]cc(Cl)c4n3)cc2F)cc1C(F)(F)F [Compound P-0047, 2-[4-(7-chloro-5H-pyrrolo[2,3-b]pyrazin-2-yl)-2-fluoro-phenyl]-N-[6-methoxy-5-(trifluoromethyl)-3-pyridyl]acetamide] | 0.0001 to 10 | 0.0001 to 10
Cn1cc(Nc2ncc(-c3ccc(CC(=O)Nc4cncc(C(C)(F)F)c4)c(F)c3)cn2)cn1 [Compound P-0090, N-[5-(1,1-difluoroethyl)-3-pyridyl]-2-[2-fluoro-4-[2-[(1-methylpyrazol-4-yl)amino]pyrimidin-5-yl]phenyl]acetamide] | 0.0001 to 10 | 0.0001 to 10
O=C(Cc1ccc(-c2cnc(Nc3cnn4ccccc34)nc2)cc1F)Nc1cncc(C(F)(F)F)c1 [Compound P-0058, 2-[2-fluoro-4-[2-(pyrazolo[1,5-a]pyridin-3-ylamino)pyrimidin-5-yl]phenyl]-N-[5-(trifluoromethyl)-3-pyridyl]acetamide] | 0.0001 to 10 | 0.0001 to 10
Cn1cnc(Nc2ncc(-c3cc(F)c(CC(=O)Nc4cncc(C(F)(F)F)c4)cc3F)cn2)c1 [Compound P-0078, 2-(2,5-difluoro-4-(2-((1-methyl-1H-imidazol-4-yl)amino)pyrimidin-5-yl)phenyl)-N-(5-(trifluoromethyl)pyridin-3-yl)acetamide] | 0.0001 to 10 | 0.0001 to 10
COc1cncc(NC(=O)Cc2ccc(-c3cnc(Nc4cnn(C)c4)nc3)cc2F)c1 [Compound P-0086, 2-[2-fluoro-4-[2-[(1-methylpyrazol-4-yl)amino]pyrimidin-5-yl]phenyl]-N-(5-methoxy-3-pyridyl)acetamide] | 0.0001 to 10 | 0.0001 to 10
Cn1cc(Nc2ncc(-c3ccc(CC(=O)Nc4cc(C(F)(F)F)ccn4)c(F)c3)cn2)cn1 [Compound P-0082, 2-[2-fluoro-4-[2-[(1-methylpyrazol-4-yl)amino]pyrimidin-5-yl]phenyl]-N-[4-(trifluoromethyl)-2-pyridyl]acetamide] | 0.0001 to 10 | 0.0001 to 10
Cc1ncc(NC(=O)Cc2ccc(-c3cnc(Nc4cnn(C)c4C)nc3)cc2F)cc1C(F)(F)F [Compound P-0076, 2-[4-[2-[(1,5-dimethylpyrazol-4-yl)amino]pyrimidin-5-yl]-2-fluoro-phenyl]-N-[6-methyl-5-(trifluoromethyl)-3-pyridyl]acetamide] | 0.0001 to 10 | 0.0001 to 10
CCC(=O)c1c[nH]c2ncc(-c3ccc(CC(=O)Nc4cnc(C)c(C(F)(F)F)c4)c(F)c3)cc12 [Compound P-0070, 2-[2-fluoro-4-(3-propanoyl-1H-pyrrolo[2,3-b]pyridin-5-yl)phenyl]-N-[6-methyl-5-(trifluoromethyl)-3-pyridyl]acetamide] | 0.0001 to 10 | 0.0001 to 10
COc1ncc(NC(=O)Cc2ccc(-c3cnc(Nc4cn[nH]c4)nc3)cc2F)cc1C(F)(F)F [Compound P-0026, 2-[2-fluoro-4-[2-(1H-pyrazol-4-ylamino)pyrimidin-5-yl]phenyl]-N-[6-methoxy-5-(trifluoromethyl)-3-pyridyl]acetamide] | 0.0001 to 10 | 0.0001 to 10
O=C(Cc1ccc(-c2cnc3[nH]cc(Cl)c3n2)cc1F)Nc1cncc(C(F)(F)F)c1 [Compound P-0061, 2-[4-(7-chloro-5H-pyrrolo[2,3-b]pyrazin-2-yl)-2-fluoro-phenyl]-N-[5-(trifluoromethyl)-3-pyridyl]acetamide] | 0.0001 to 10 | 0.0001 to 10
CC(=O)c1c[nH]c2ncc(-c3ccc(CC(=O)Nc4cncc(C(F)(F)F)c4)c(F)c3)cc12 [Compound P-0055, 2-[4-(3-acetyl-1H-pyrrolo[2,3-b]pyridin-5-yl)-2-fluoro-phenyl]-N-[5-(trifluoromethyl)-3-pyridyl]acetamide] | 0.0001 to 10 | 0.0001 to 10
Cc1ncc(NC(=O)Cc2ccc(-c3cnc(Nc4cnn5ccccc45)nc3)cc2F)cc1C(F)(F)F [Compound P-0065, 2-(2-fluoro-4-(2-(pyrazolo[1,5-a]pyridin-3-ylamino)pyrimidin-5-yl)phenyl)-N-(6-methyl-5-(trifluoromethyl)pyridin-3-yl)acetamide] | 0.0001 to 10 | 0.0001 to 10
Cc1ncc(NC(=O)Cc2ccc(-c3cnc4[nH]cc(F)c4c3)cc2F)cc1C(F)(F)F [Compound P-0062, 2-[2-fluoro-4-(3-fluoro-1H-pyrrolo[2,3-b]pyridin-5-yl)phenyl]-N-[6-methyl-5-(trifluoromethyl)-3-pyridyl]acetamide] | 0.0001 to 10 | 0.0001 to 10
O=C(Cc1ccc(-c2cnc3[nH]cc(C(=O)C4CC4)c3c2)cc1F)Nc1ccnc(C(F)(F)F)c1 [Compound P-0032, 2-[4-[3-(cyclopropanecarbonyl)-1H-pyrrolo[2,3-b]pyridin-5-yl]-2-fluoro-phenyl]-N-[2-(trifluoromethyl)-4-pyridyl]acetamide] | 0.0001 to 10 | 0.0001 to 10
COc1ncc(NC(=O)Cc2ccc(-c3cnc(Nc4cnn5ccccc45)nc3)cc2F)cc1C(F)(F)F [Compound P-0037, 2-[2-fluoro-4-[2-(pyrazolo[1,5-a]pyridin-3-ylamino)pyrimidin-5-yl]phenyl]-N-[6-methoxy-5-(trifluoromethyl)-3-pyridyl]acetamide] | 0.0001 to 10 | 0.0001 to 10
COc1ncc(NC(=O)Cc2ccc(-c3cnc4[nH]cc(F)c4c3)cc2F)cc1C(F)(F)F [Compound P-0034, 2-[2-fluoro-4-(3-fluoro-1H-pyrrolo[2,3-b]pyridin-5-yl)phenyl]-N-[6-methoxy-5-(trifluoromethyl)-3-pyridyl]acetamide] | 0.0001 to 10 | 0.0001 to 10
Cn1cc(Nc2ncc(-c3ccc(CC(=O)NCc4ccccn4)c(F)c3)cn2)cn1 [Compound P-0088, 2-[2-fluoro-4-[2-[(1-methylpyrazol-4-yl)amino]pyrimidin-5-yl]phenyl]-N-(2-pyridylmethyl)acetamide] | 0.0001 to 10 | 0.0001 to 10
COc1ncc(NC(=O)Cc2ccc(-c3cnc4[nH]cc(C(=O)C5CC5)c4c3)cc2F)cc1C(F)(F)F [Compound P-0036, 2-[4-[3-(cyclopropanecarbonyl)-1H-pyrrolo[2,3-b]pyridin-5-yl]-2-fluoro-phenyl]-N-[6-methoxy-5-(trifluoromethyl)-3-pyridyl]acetamide] | 0.0001 to 10 | 0.0001 to 10
Cc1ncc(NC(=O)Cc2ccc(-c3cnc4[nH]cc(Cl)c4n3)cc2F)cc1C(F)(F)F [Compound P-0059, 2-[4-(7-chloro-5H-pyrrolo[2,3-b]pyrazin-2-yl)-2-fluoro-phenyl]-N-[6-methyl-5-(trifluoromethyl)-3-pyridyl]acetamide] | 0.0001 to 10 | 0.0001 to 10
Cn1cc(Nc2ncc(-c3ccc(CC(=O)Nc4cncc(C5CC5)c4)c(F)c3)cn2)cn1 [Compound P-0081, N-(5-cyclopropyl-3-pyridyl)-2-[2-fluoro-4-[2-[(1-methylpyrazol-4-yl)amino]pyrimidin-5-yl]phenyl]acetamide] | 0.0001 to 10 | 0.0001 to 10
Cc1nn(C)cc1Nc1ncc(-c2ccc(CC(=O)Nc3cnc(C)c(C(F)(F)F)c3)c(F)c2)cn1 [Compound P-0077, 2-[4-[2-[(1,3-dimethylpyrazol-4-yl)amino]pyrimidin-5-yl]-2-fluoro-phenyl]-N-[6-methyl-5-(trifluoromethyl)-3-pyridyl]acetamide] | 0.0001 to 10 | 0.0001 to 10

From patent US10160747B2, “Compounds and methods for kinase modulation, and indications therefor” (Plexxikon Inc., priority 2016, dated 2018)
